Where a name gives a salt, the structure may show the parent alone. Some results are limits rather than exact numbers.

The target in test [1] is T1, human TRPV1 (Homo sapiens, UniProt Q8NER1).
T1 construct: expressed in transfected cells; host or cells: HEK293
The test is described as follows: Block of capsaicin-induced Ca2+ influx, human assay (hTRPV1/HEK293, FLIPR). The class given is cell-based. The conditions noted are these: HEK293 cells transfected with human TRPV1; 150 nM capsaicin challenge; mean; > value = solubility limit in assay medium. As to the method: (§1) HEK293 cells were transfected with human TRPV1 cloned in pcDNA3.1zeo(+) using the Effectene non-liposomal lipid based transfection kit (Qiagen) (hTRPV1/HEK293). hTRPV1/HEK293 cells were routinely grown as monolayers under selection in zeocin (200 μg/mL; Invitrogen) in Dulbecco's Modified Eagle Medium (DMEM, Gibco BRL) supplemented with 10% fetal bovine serum, and penicillin/streptomycin (50 units/mL) in 5% CO2 at 37° C. Cells were passaged frequently, every 3-5 days, to avoid overgrowth, depletion of essential medium components, or acidic medium exposure. Cells were passaged using a brief wash in 0.05% trypsin with 1 mM EDTA, followed by dissociation in divalent-free phosphate-buffered saline (Hyclone #SH30028.02). […] The assay buffer was composed of 130 mM NaCl, 2 mM KCl, 2 mM MgCl2, 10 mM HEPES, 5 mM glucose, and either 2 mM or 20 μM CaCl2. On the day of the experiment, the culture medium was replaced with 2 mM calcium assay buffer using an automated plate washer (ELx405; Biotek, VT). […] After loading the cells, the dye solution was replaced with 50 μL/well of 20 μM calcium assay buffer using the ELx405 plate washer. Test compounds (50 μL/well) were added to the plate and incubated for 30 min. Intracellular Ca^2+ levels were subsequently assayed using a Fluorometric Imaging Plate Reader (FLIPR™ instrument, Molecular Devices, CA) to simultaneously monitor Fluo-3 fluorescence in all wells (λexcitation=488 nm, λemission=540 nm) during challenge with agonist (capsaicin). The IC50 values were determined. […] The contents of the wells were mixed 3 times (40 μL mix volume) immediately after the additions were made. Concentration-dependence of block was determined by exposing each well of cells in duplicate rows of a 96-well plate to a serial dilution of test compound. The concentration series usually started at 10 μM with a three-fold serial decrement in concentration. The magnitude of the capsaicin response was determined by measuring the change in fluo3 fluorescence before and 100 seconds after the addition of the agonist. Data were analyzed using a non-linear regression program (Origin; OriginLab, MA).
(§2) IC50 values shown are the average (mean) of the results obtained. […] Compounds were tested as in the free base, trifluoroacetic acid salt, or hydrochloride salt form.

In test [2] the target is T2, rat TRPV1 (Rattus norvegicus, UniProt O35433).
T2 construct: expressed in transfected cells; host or cells: HEK293
The test is described as follows: Block of capsaicin-induced Ca2+ influx, rat assay (rTRPV1/HEK293, FLIPR). Type of test: cell-based. The following applies: HEK293 cells transfected with rat TRPV1; capsaicin challenge; mean; > value = solubility limit in assay medium; read-out: Rat IC50. As for the experimental part:
as §1
This assay was performed similarly to the human assay described above, but using HEK293 cells transfected with rat TRPV1 (rTRPV1/HEK293).
as §2

T2 sequence (O35433 whole entry): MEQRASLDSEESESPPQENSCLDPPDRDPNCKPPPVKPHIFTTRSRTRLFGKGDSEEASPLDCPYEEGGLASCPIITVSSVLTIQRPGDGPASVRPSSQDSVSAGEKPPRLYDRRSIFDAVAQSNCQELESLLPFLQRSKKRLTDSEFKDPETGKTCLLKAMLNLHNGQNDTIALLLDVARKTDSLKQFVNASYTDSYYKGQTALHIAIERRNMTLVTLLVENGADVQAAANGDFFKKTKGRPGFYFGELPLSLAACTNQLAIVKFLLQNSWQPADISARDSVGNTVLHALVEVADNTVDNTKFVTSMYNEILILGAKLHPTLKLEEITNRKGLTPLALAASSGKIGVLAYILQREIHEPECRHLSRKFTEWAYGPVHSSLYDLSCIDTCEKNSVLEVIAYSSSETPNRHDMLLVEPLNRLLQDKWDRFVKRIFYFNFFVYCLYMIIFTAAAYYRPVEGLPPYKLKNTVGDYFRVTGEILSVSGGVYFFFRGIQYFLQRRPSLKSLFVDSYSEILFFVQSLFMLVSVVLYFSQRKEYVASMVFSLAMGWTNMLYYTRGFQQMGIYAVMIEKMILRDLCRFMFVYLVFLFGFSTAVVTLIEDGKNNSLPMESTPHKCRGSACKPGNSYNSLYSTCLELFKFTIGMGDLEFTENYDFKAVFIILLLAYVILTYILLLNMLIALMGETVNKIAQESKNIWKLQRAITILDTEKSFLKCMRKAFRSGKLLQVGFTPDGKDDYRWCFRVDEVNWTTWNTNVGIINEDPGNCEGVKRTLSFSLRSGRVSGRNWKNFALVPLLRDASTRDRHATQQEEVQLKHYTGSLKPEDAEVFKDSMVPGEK
T1 sequence (Q8NER1 whole entry): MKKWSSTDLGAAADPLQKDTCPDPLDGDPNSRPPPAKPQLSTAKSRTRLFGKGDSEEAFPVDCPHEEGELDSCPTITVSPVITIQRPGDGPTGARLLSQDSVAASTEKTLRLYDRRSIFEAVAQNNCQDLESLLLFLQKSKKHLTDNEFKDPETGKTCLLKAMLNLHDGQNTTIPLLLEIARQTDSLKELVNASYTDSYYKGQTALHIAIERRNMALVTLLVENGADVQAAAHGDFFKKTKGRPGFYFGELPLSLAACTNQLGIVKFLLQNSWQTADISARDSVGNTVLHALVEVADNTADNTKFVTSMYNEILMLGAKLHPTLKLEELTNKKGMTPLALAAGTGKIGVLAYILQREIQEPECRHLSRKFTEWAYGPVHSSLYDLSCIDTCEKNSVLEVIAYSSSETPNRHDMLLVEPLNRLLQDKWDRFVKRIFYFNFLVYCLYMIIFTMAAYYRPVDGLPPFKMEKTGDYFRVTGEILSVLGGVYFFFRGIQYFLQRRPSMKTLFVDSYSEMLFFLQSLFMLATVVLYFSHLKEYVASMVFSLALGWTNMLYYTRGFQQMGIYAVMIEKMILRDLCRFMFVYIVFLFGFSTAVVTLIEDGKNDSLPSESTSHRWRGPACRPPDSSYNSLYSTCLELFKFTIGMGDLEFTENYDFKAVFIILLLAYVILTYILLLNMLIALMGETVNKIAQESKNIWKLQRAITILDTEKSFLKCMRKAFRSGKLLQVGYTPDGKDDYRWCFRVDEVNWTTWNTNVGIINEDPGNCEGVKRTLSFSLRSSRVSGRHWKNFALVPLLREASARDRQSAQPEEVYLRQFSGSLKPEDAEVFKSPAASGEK

Broadly, the IC50 is the midpoint of a concentration-inhibition curve. On to `FC(F)(F)c1ccc(Nc2ncnc3oc(Cc4c(Cl)cccc4Cl)nc23)cc1` [Example 1, [2-(2,6-Dichloro-benzyl)-oxazolo[5,4-d]pyrimidin-7-yl]-(4-trifluoromethyl-phenyl)-amine], for which the figures for the concentration for half-maximal inhibition (IC50) in test [1] and in test [2] were 136 nM and 58 nM, respectively. On the same counts, the results for `CC(C)(C)c1ccc(Nc2ncnc3oc(Cc4c(Cl)cccc4Cl)nc23)cc1` [Example 2, (4-tert-Butyl-phenyl)-[2-(2,6-dichloro-benzyl)-oxazolo[5,4-d]pyrimidin-7-yl]-amine] are 75 nM and 30 nM. For `FC(F)(F)c1ccc(Nc2ncnc3sc(Cc4c(Cl)cccc4Cl)nc23)cc1` [Example 3, [2-(2,6-Dichloro-benzyl)-thiazolo[5,4-d]pyrimidin-7-yl]-(4-trifluoromethyl-phenyl)-amine], in that order: 48 nM and 30 nM. On the same counts, the results for `FC(F)(F)c1ccc(Nc2ncnc3sc(Cc4ccccc4I)nc23)cc1` [Example 4, [2-(2-Iodo-benzyl)-thiazolo[5,4-d]pyrimidin-7-yl]-(4-trifluoromethyl-phenyl)-amine] are 22 nM and 8 nM.

In the case of `CSc1nc(Nc2ccc(C(F)(F)F)cc2)c2nc(Cc3c(Cl)cccc3Cl)sc2n1` [Example 5, [2-(2,6-Dichloro-benzyl)-5-methylsulfanyl-thiazolo[5,4-d]pyrimidin-7-yl]-(4-trifluoromethyl-phenyl)-amine], the half-inhibitory concentration (IC50) in test [2] was > 6670 nM. On to `Cc1nc(Nc2ccc(C(F)(F)F)cc2)c2nc(Cc3c(Cl)cccc3Cl)sc2n1` [Example 6, [2-(2,6-Dichloro-benzyl)-5-methyl-thiazolo[5,4-d]pyrimidin-7-yl]-(4-trifluoromethyl-phenyl)-amine], for which the IC50 is 23 nM in test [1] and 15 nM in test [2]. Regarding `COC(=O)C(C)(C)c1ccc(Nc2ncnc3sc(Cc4c(Cl)cccc4Cl)nc23)cc1` [Example 26, Methyl 2-(4-{[2-(2,6-dichlorobenzyl)[1,3]thiazolo[5,4-d]pyrimidin-7-yl]amino}phenyl)-2-methylpropanoate], in test [2], the concentration for half-maximal inhibition (IC50) came out at 74 nM.

As to `FC(F)(F)c1ccc(Nc2ncnc3sc(Cc4ccc(Cl)cc4Cl)nc23)cc1` [Example 27, 2-(2,4-Dichlorobenzyl)-N-[4-(trifluoromethyl)phenyl][1,3]thiazolo[5,4-d]pyrimidin-7-amine], the IC50 in test [2] was 43 nM. Same read-out and setting: the figure for `O=S(=O)(c1ccc(Nc2ncnc3sc(Cc4c(Cl)cccc4Cl)nc23)cc1)N1CCNCC1` [Example 28, 2-(2,6-Dichlorobenzyl)-N-[4-(piperazin-1-ylsulfonyl)phenyl][1,3]thiazolo[5,4-d]pyrimidin-7-amine] is > 2220 nM. Still for that read-out and setting: the figure for `FC(F)(F)c1ccc(Nc2ncnc3sc(Cc4ccc(Cl)cc4Cl)nc23)cn1` [Example 29, 2-(2,4-Dichlorobenzyl)-N-[6-(trifluoromethyl)pyridin-3-yl][1,3]thiazolo[5,4-d]pyrimidin-7-amine] is 600 nM. Still for that read-out and setting: the figure for `FC(F)(F)c1ccc(Nc2ncnc3sc(Cc4ccccc4C(F)(F)F)nc23)cc1` [Example 30, 2-[2-(Trifluoromethyl)benzyl]-N-[4-(trifluoromethyl)phenyl][1,3]thiazolo[5,4-d]pyrimidin-7-amine] is 4 nM; for `FC(F)(F)c1ccc(Nc2ncnc3sc(Cc4ccccc4C(F)(F)F)nc23)cn1` [Example 31, 2-[2-(Trifluoromethyl)benzyl]-N-[6-(trifluoromethyl)pyridin-3-yl][1,3]thiazolo[5,4-d]pyrimidin-7-amine] it is 13 nM; for `CSc1ccc(Nc2ncnc3sc(Cc4c(Cl)cccc4Cl)nc23)cn1` [Example 38, 2-(2,6-Dichlorobenzyl)-N-[6-(methylsulfanyl)pyridin-3-yl][1,3]thiazolo[5,4-d]pyrimidin-7-amine] it is 99 nM. Turning to `CC(CO)Nc1nc(Nc2ccc(C(F)(F)F)cc2)c2nc(Cc3c(Cl)cccc3Cl)sc2n1` (centres unmarked) [Example 70, 2-[2-(2,6-Dichloro-benzyl)-7-(4-trifluoromethyl-phenylamino)-thiazolo[5,4-d]pyrimidin-5-ylamino]-propan-1-ol], the IC50 in test [2] came out at 1020 nM. For the molecule `COC[C@@H]1CCCN1c1nc(Nc2ccc(C(F)(F)F)cc2)c2nc(Cc3c(Cl)cccc3Cl)sc2n1` [Example 71, (S)-[2-(2,6-Dichloro-benzyl)-5-(2-methoxymethyl-pyrrolidin-1-yl)-thiazolo[5,4-d]pyrimidin-7-yl]-(4-trifluoromethyl-phenyl)-amine], the concentration for half-maximal inhibition (IC50) in test [2] amounted to 2450 nM. Still for that read-out and setting: the figure for `CC(C)Nc1nc(Nc2ccc(C(F)(F)F)cc2)c2nc(Cc3c(Cl)cccc3Cl)sc2n1` [Example 72, 2-(2,6-Dichloro-benzyl)-N^5-isopropyl-N^7-(4-trifluoromethyl-phenyl)-thiazolo[5,4-d]pyrimidine-5,7-diamine] is 72 nM; for `FC(F)(F)c1ccc(Nc2nc(N3CCC3)nc3sc(Cc4c(Cl)cccc4Cl)nc23)cc1` [Example 73, [5-Azetidin-1-yl-2-(2,6-dichloro-benzyl)-thiazolo[5,4-d]pyrimidin-7-yl]-(4-trifluoromethyl-phenyl)-amine] it is 63 nM.

`FC(F)(F)c1ccc(Nc2nc(N3CCNCC3)nc3sc(Cc4c(Cl)cccc4Cl)nc23)cc1` [Example 74, [2-(2,6-Dichloro-benzyl)-5-piperazin-1-yl-thiazolo[5,4-d]pyrimidin-7-yl]-(4-trifluoromethyl-phenyl)-amine trifluoroacetic acid salt]: the concentration for half-maximal inhibition (IC50) in test [2] was > 6670 nM. Still for that read-out and setting: the figure for `CC(C)N1CCN(c2nc(Nc3ccc(C(F)(F)F)cc3)c3nc(Cc4c(Cl)cccc4Cl)sc3n2)CC1` [Example 75, [2-(2,6-Dichloro-benzyl)-5-(4-isopropyl-piperazin-1-yl)-thiazolo[5,4-d]pyrimidin-7-yl]-(4-trifluoromethyl-phenyl)-amine trifluoroacetic acid salt] is 132 nM; for `FC(F)(F)c1ccc(Nc2nc(N3CCCCC3)nc3sc(Cc4c(Cl)cccc4Cl)nc23)cc1` [Example 81, [2-(2,6-Dichloro-benzyl)-5-piperidin-1-yl-thiazolo[5,4-d]pyrimidin-7-yl]-(4-trifluoromethyl-phenyl)-amine] it is 14 nM; for `FC(F)(F)c1ccc(Nc2nc(NCCN3CCCC3)nc3sc(Cc4c(Cl)cccc4Cl)nc23)cc1` [Example 82, 2-(2,6-Dichloro-benzyl)-N^5-(2-pyrrolidin-1-yl-ethyl)-N^7-(4-trifluoromethyl-phenyl)-thiazolo[5,4-d]pyrimidine-5,7-diamine trifluoroacetic acid salt] it is 959 nM. Still for that read-out and setting: the figure for `FC(F)(F)c1nnc(Nc2ncnc3sc(Cc4c(Cl)cccc4Cl)nc23)s1` [Example 98, 2-(2,6-Dichlorobenzyl)-N-[5-(trifluoromethyl)-1,3,4-thiadiazol-2-yl][1,3]thiazolo[5,4-d]pyrimidin-7-amine] is 1050 nM. On the same count and under the same terms, for `CC(C)(C)c1nnc(Nc2ncnc3sc(Cc4c(Cl)cccc4Cl)nc23)s1` [Example 99, N-(5-tert-Butyl-1,3,4-thiadiazol-2-yl)-2-(2,6-dichlorobenzyl)[1,3]thiazolo[5,4-d]pyrimidin-7-amine] the value was 195 nM; for `CC(C)COc1nc(Nc2ccc(C(F)(F)F)cc2)c2nc(Cc3c(Cl)cccc3Cl)sc2n1` [Example 103, [2-(2,6-Dichloro-benzyl)-5-isobutoxy-thiazolo[5,4-d]pyrimidin-7-yl]-(4-trifluoromethyl-phenyl)-amine], 16 nM.

These data come from US9440978B2, “Imidazolo-, oxazolo-, and thiazolopyrimidine modulators of TRPV1” (Janssen Pharmaceutica NV, priority 2007, dated 2016).
